Assay results published in patent US8148373B2, “Compounds” (AstraZeneca AB, priority 2008, dated 2012).

What was measured:
[1] = biological target: T1, Adrenergic β2 (H292 cells) (Homo sapiens, UniProt P07550); experiment: Assay for Adrenergic β2 Mediated cAMP Production (concentration response, AlphaScreen cAMP detection); format: cell-based; conditions: for EC50: cAMP production, 60 minutes at room temperature, 300 μM rolipram, read-out: β2 pEC50 (converted); for β2 Intrinsic activity: fraction relative to the maximum activity determined for formoterol
T1 construct: endogenous in cells; host or cells: H292 cells
T1 sequence (P07550 whole entry): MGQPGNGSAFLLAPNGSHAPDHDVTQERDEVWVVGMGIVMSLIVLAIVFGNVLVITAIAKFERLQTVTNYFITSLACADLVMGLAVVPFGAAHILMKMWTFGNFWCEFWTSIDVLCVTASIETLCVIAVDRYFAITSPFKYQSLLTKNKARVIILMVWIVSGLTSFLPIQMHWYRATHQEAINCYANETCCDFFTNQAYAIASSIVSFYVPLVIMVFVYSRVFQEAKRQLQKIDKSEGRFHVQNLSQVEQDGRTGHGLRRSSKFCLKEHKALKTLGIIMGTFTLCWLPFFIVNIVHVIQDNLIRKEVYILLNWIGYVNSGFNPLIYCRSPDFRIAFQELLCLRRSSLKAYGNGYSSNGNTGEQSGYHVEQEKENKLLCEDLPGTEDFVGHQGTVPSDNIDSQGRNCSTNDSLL
Summary of the method: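 Intrinsic activity is relative to the per-experiment formoterol maximum, with pEC50 from a four-parameter logistic fit of cAMP levels quantified by AlphaScreen against standards. Cells (H292) got 300 μM rolipram for 10 min, then compound for 60 min at room temperature, 1% DMSO final.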

[2] = biological target: T2, human muscarinic acetylcholine M3 receptor (M3-ACh) (Homo sapiens, UniProt P20309); experiment: Muscarinic 3 Receptor Binding Assay, % inhibition specific binding at 1 μM; conditions: 1 μM compound, % inhibition specific [3H]-NMS binding
T2 construct: expressed in transfected cells; host or cells: CHO-K1 (Chinese Hamster Ovary) cell membranes
T2 sequence (P20309 whole entry): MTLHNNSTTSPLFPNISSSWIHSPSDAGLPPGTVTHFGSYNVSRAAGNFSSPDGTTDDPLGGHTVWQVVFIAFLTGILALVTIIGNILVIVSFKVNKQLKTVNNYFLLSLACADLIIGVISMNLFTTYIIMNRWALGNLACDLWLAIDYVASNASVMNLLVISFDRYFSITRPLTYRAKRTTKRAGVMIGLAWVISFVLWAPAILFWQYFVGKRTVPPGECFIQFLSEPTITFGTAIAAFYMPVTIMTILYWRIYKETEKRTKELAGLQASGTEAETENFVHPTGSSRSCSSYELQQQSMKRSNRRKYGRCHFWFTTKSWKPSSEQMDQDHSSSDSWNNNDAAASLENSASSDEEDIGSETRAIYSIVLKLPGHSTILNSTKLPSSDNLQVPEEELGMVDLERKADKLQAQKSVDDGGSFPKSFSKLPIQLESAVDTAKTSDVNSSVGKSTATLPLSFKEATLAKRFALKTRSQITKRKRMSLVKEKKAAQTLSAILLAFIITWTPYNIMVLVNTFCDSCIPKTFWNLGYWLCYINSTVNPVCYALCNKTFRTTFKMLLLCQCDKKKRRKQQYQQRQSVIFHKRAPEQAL
Summary of the method: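 Value is % inhibition of specific [3H]N-methyl scopolamine binding (0.1 nM, quarter Kd) by 1 μM compound, using SPA beads precoated with human M3-expressing CHO-K1 membranes. Buffer HEPES pH 7.4 with MgCl2 and 1% DMSO; 16 h at room temperature; 1 μM atropine sets non-specific binding.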

[3] = biological target: T2, human muscarinic acetylcholine M3 receptor (M3-ACh); experiment: Muscarinic 3 Receptor Binding Assay ([3H]NMS competition, SPA); conditions: [3H]NMS 0.1 nM, CHO-K1 cell membranes, 16 hours at room temperature; read-out: M3 pIC50 (converted)
Summary of the method: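 Competition SPA binding of 0.1 nM [3H]NMS (quarter Kd) to membranes from CHO-K1 cells expressing human M3, in 20 mM HEPES pH 7.4, 5 mM MgCl2, 1% DMSO. Incubated 16 h at room temperature; non-specific binding with 1 µM atropine. pIC50 from 50% reduction of specific binding.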

[4] = biological target: T1, Adrenergic β2 (H292 cells); experiment: Adrenergic β2 Mediated cAMP Production, single concentration 1 μM; format: cell-based; conditions: NCI-H292, 1 μM compound, percentage of the maximum response generated by 1E-07M formoterol, read-out: β2 (% effect at 1 μM)
Summary of the method: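 cAMP was quantified by AlphaScreen in lysates of H292 cells and reported as a percentage of the 1E-07M formoterol maximum. Before lysis the cells, seeded the previous day, received rolipram (300 μM final) and then test compound at a final 1 μM in 1% DMSO for 60 min at room temperature.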

Row | EC50 [1] [nM] | β2 Intrinsic activity [1] | inhibition at 1 µM [2] [%] | IC50 [3] [nM] | activation at 1 µM [4] [%] | SMILES
1 | 2.51 | 0.8 | 99 | 7.94 | 93 | O=C(c1ccc2occc2c1)N1CCOC2(CCN(Cc3cc(F)cc(CCNC[C@H](O)c4ccc(O)c5[nH]c(=O)sc45)c3)CC2)C1 [Example 173, (R)-7-(2-(3-((4-(benzofuran-5-carbonyl)-1-oxa-4,9-diazaspiro[5.5]undecan-9-yl)methyl)-5-fluorophenethylamino)-1-hydroxyethyl)-4-hydroxybenzo[d]thiazol-2(3H)-one]
2 | 12.6 | 1 | 90 | 79.4 | 109 | CC(C)(C)CC(=O)N1CCOC2(CCN(Cc3cc(F)cc(CCNC[C@H](O)c4ccc(O)c5[nH]c(=O)sc45)c3)CC2)C1 [Example 130, (R)-7-(2-(3-((4-(3,3-dimethylbutanoyl)-1-oxa-4,9-diazaspiro[5.5]undecan-9-yl)methyl)-5-fluorophenethylamino)-1-hydroxyethyl)-4-hydroxybenzo[d]thiazol-2(3H)-one]
3 | 6.31 | 0.9 | 91 | 25.1 | 105 | O=C(c1cccc2cc[nH]c12)N1CCOC2(CCN(Cc3cc(F)cc(CCNC[C@H](O)c4ccc(O)c5[nH]c(=O)sc45)c3)CC2)C1 [Example 141, (R)-7-(2-(3-((4-(1H-indole-7-carbonyl)-1-oxa-4,9-diazaspiro[5.5]undecan-9-yl)methyl)-5-fluorophenethylamino)-1-hydroxyethyl)-4-hydroxybenzo[d]thiazol-2(3H)-one]
4 | 31.6 | 0.9 | 99 | 1.26 | 93 | O=C(c1csc(C2CCCC2)n1)N1CCOC2(CCN(CCCCCCCCCNC[C@H](O)c3ccc(O)c4[nH]c(=O)sc34)CC2)C1 [Example 221, (R)-7-(2-(9-(4-(2-cyclopentylthiazole-4-carbonyl)-1-oxa-4,9-diazaspiro[5.5]undecan-9-yl)nonylamino)-1-hydroxyethyl)-4-hydroxybenzo[d]thiazol-2(3H)-one]
5 | 25.1 | 0.8 | 100 | 0.631 | 109 | O=C(c1csc(C2CCC2)n1)N1CCOC2(CCN(CCCCCCCCCNC[C@H](O)c3ccc(O)c4[nH]c(=O)sc34)CC2)C1 [Example 220, (R)-7-(2-(9-(4-(2-cyclobutylthiazole-4-carbonyl)-1-oxa-4,9-diazaspiro[5.5]undecan-9-yl)nonylamino)-1-hydroxyethyl)-4-hydroxybenzo[d]thiazol-2(3H)-one]
6 | 12.6 | 0.8 | 99 | 0.794 | 87 | Cc1csc(C(=O)N2CCOC3(CCN(CCCCCCCCCNC[C@H](O)c4ccc(O)c5[nH]c(=O)sc45)CC3)C2)c1 [Example 213, (R)-4-hydroxy-7-(1-hydroxy-2-(9-(4-(4-methylthiophene-2-carbonyl)-1-oxa-4,9-diazaspiro[5.5]undecan-9-yl)nonylamino)ethyl)benzo[d]thiazol-2(3H)-one]
7 | 31.6 | 0.9 | 98 | 6.31 | 105 | Cc1nc(C(=O)N2CCOC3(CCN(CCCCCCCCCNC[C@H](O)c4ccc(O)c5[nH]c(=O)sc45)CC3)C2)c(C)s1 [Example 201, (R)-7-(2-(9-(4-(2,5-dimethylthiazole-4-carbonyl)-1-oxa-4,9-diazaspiro[5.5]undecan-9-yl)nonylamino)-1-hydroxyethyl)-4-hydroxybenzo[d]thiazol-2(3H)-one]
8 | 50.1 | 0.8 | 99 | 1 | 92 | CCCc1nc(C(=O)N2CCOC3(CCN(CCCCCCCCCNC[C@H](O)c4ccc(O)c5[nH]c(=O)sc45)CC3)C2)cs1 [Example 219, (R)-4-hydroxy-7-(1-hydroxy-2-(9-(4-(2-propylthiazole-4-carbonyl)-1-oxa-4,9-diazaspiro[5.5]undecan-9-yl)nonylamino)ethyl)benzo[d]thiazol-2(3H)-one]
9 | 200 | 0.9 | 99 | 5.01 | 68 | O=C(c1csc(C2CC2)n1)N1CCOC2(CCN(CCOc3ccc(CNC[C@H](O)c4ccc(O)c5[nH]c(=O)sc45)cc3)CC2)C1 [Example 259, (R)-7-(2-(4-(2-(4-(2-cyclopropylthiazole-4-carbonyl)-1-oxa-4,9-diazaspiro[5.5]undecan-9-yl)ethoxy)benzylamino)-1-hydroxyethyl)-4-hydroxy-benzo[d]thiazol-2(3H)-one]
